Data as given in ChEMBL document CHEMBL1128443, “Synthesis and structure-activity relationships of phenylenebis(methylene)-linked bis-tetraazamacrocycles that inhibit HIV replication. Effects of macrocyclic ring size and substituents on the aromatic linker” (J Med Chem, 1995).

Legend:
[1] = test system: Human immunodeficiency virus 1; assay: Concentration required to protect the virus infected cells against viral cytopathicity was measured on HIV-1(IIIB) virus strain in MT-4 cells; assay type: functional, organism-based, MT4
[2] = test system: Human immunodeficiency virus 2; assay: Concentration required to protect the virus infected cells against viral cytopathicity was measured on HIV-2(ROD) virus strain in MT-4 cells; assay type: functional, organism-based, MT4
MT4 [3] = assay: Concentration required to reduce the viability of mock-infected MT-4 cells; assay type: functional, Homo sapiens
MT4 [4] = details: Homo sapiens
[5] = Human immunodeficiency virus 1, MT4
[6] = Human immunodeficiency virus 2, MT4
[7] = mt4, tested as the Zn salt or complex

| Compound | EC50 [1, 5] [µM] | EC50 [2, 6] [µM] | CC50 (MT4 [3]; Homo sapiens, MT4) [µM] | other results |
| --- | --- | --- | --- | --- |
| c1cc(CN2CCNCCNCCNCC2)ccc1CN1CCNCCNCCNCC1 | 0.322 | 2.36 | 55 |  |
| c1cc(CN2CCCNCCCNCCCNCCC2)cc(CN2CCCNCCCNCCCNCCC2)c1 | 16.7 | 71.5 | 193 |  |
| c1cc(CN2CCCNCCCNCCNCCC2)cc(CN2CCCNCCCNCCNCCC2)c1 | 2.72 | 11.7 | > 190 |  |
| Cc1ccc(CN2CCCNCCNCCCNCC2)cc1 | 1.42 | 1.15 | > 324 |  |
| c1cc(CN2CCCNCCNCCNCCC2)ccc1CN1CCCNCCNCCNCCC1 | 0.0253 | 0.059 | > 421 |  |
| c1cc(CN2CCCNCCNCCCNCC2)ccc1CN1CCCNCCNCCNCCC1 | 0.0079 | 0.0556 | > 397 |  |
| O=[N+]([O-])c1cc(CN2CCCNCCNCCCNCC2)cc(CN2CCCNCCNCCCNCC2)c1 | 0.0406 | 0.0569 | 44 |  |
| Clc1c(Cl)c(CN2CCCNCCNCCCNCC2)c(Cl)c(CN2CCCNCCNCCCNCC2)c1Cl | 0.529 | 1.96 | 9 |  |
| c1ccc(-c2cc(CN3CCCNCCNCCCNCC3)ccc2CN2CCCNCCNCCCNCC2)cc1 | 0.106 | 0.08 | > 198 |  |
| Cc1cc(CN2CCCNCCNCCCNCC2)c(C)cc1CN1CCCNCCNCCCNCC1 | 0.0064 | 0.0011 | > 208 |  |
| c1ccc(CN2CCCNCCNCCCNCC2)c(CN2CCCNCCNCCCNCC2)c1 | 1.36 | 3.13 | > 168 |  |
| Brc1cc(CN2CCCNCCNCCCNCC2)ccc1CN1CCCNCCNCCCNCC1 | 0.0061 | 0.0035 | > 203 |  |
| Clc1cc(CN2CCCNCCNCCCNCC2)c(Cl)cc1CN1CCCNCCNCCCNCC1 | 0.0107 | 0.0025 | 58 |  |
| 1,1'-[1,4-phenylenebis(methylene)]bis[1,4,8,11-tetraazacyclotetradecane]copper Heptahydrate (7H2O) [listing 1 of 2 here] |  |  |  | EC50 ([1]; mt4): 0.0181 µM; EC50 ([2]; mt4): 0.0272 µM |
| c1cc(CC2CNCCNCCCNCCNC2)ccc1CC1CNCCNCCCNCCNC1 | 0.506 | 0.674 | 406 |  |
| NCCCNCCNCCCNCc1ccc(CN2CCCNCCNCCCNCC2)cc1 | 0.373 | 0.711 | > 444 |  |
| c1cc(CN2CCCNCCNCCCNCC2)ccc1CN1CCCNCCCNCCCNCCC1 | 2.43 | 11.6 | > 209 |  |
| 1,1'-[1,4-phenylenebis(methylene)]bis[1,4,8,11-tetraazacyclotetradecane] Palladium Diperchlorate Tetrahydrate (4H2O) [listing 1 of 2 here] |  |  |  | EC50 ([1]; mt4): 31.5 µM; EC50 ([2]; mt4): 59.3 µM |
| Fc1c(F)c(CN2CCCNCCNCCCNCC2)c(F)c(F)c1CN1CCCNCCNCCCNCC1 | 0.0079 | 0.0079 | 47 |  |
| c1cc(CN2CCCNCCNCCNCCC2)cc(CN2CCCNCCNCCNCCC2)c1 | 0.323 | 0.645 | > 403 |  |
| c1cc(CCCN2CCCNCCNCCCNCC2)ccc1CCCN1CCCNCCNCCCNCC1 | 0.403 | 14.5 | 283 |  |

| Compound | EC50 [1, 5] [µM] | EC50 [2, 6] [µM] | CC50 (MT4 [3]; Homo sapiens, MT4) [µM] | other results |
| --- | --- | --- | --- | --- |
| c1cc(CN2CCCNCCNCCNCCC2)ccc1CN1CCCNCCCNCCCNCCC1 | 0.318 | 3.18 | 101 |  |
| c1cc(CN2CCCNCCCNCCCNCCC2)ccc1CN1CCCNCCCNCCCNCCC1 | 9.13 | 13.7 | 48 |  |
| Brc1cc(CN2CCCNCCNCCCNCC2)cc(CN2CCCNCCNCCCNCC2)c1 | 0.0845 | 0.0538 | > 192 |  |
| c1cc(CCN2CCCNCCNCCCNCC2)ccc1CCN1CCCNCCNCCCNCC1 | 14.9 | 69.7 | > 201 |  |
| c1cc(CN2CCCNCCNCCNCCC2)cc(CN2CCCNCCNCCCNCC2)c1 | 0.0843 | 0.759 | > 421 |  |
| c1cc(CN2CCCNCCNCCCNCC2)ccc1CN1CCCNCCNCCCNCC1 [listing 1 of 2 here] |  |  |  | EC50 [1, 7]: 0.0033 µM; EC50 [2, 7]: 0.0024 µM; CC50 (MT4 [3]; tested as the Zn salt or complex): > 251 µM |
| 1,1'-[1,4-phenylenebis(methylene)]bis[1,4,8,11-tetraazacyclotetradecane] Palladium Diperchlorate Tetrahydrate (4H2O) [listing 2 of 2 here] |  |  |  | CC50 (MT4 [4]): > 210 µM |
| c1cc(CN2CCCNCCNCCCNCC2)cc(CN2CCCNCCNCCCNCC2)c1 | 0.0337 | 0.0422 | > 421 |  |
| c1cc(CN2CCNCCNCCNCC2)cc(CN2CCNCCNCCNCC2)c1 | 0.0751 | 0.536 | 20 |  |
| c1cc(CN2CCCNCCCNCCNCCC2)ccc1CN1CCCNCCCNCCNCCC1 | 1.67 | 2.01 | 171 |  |
| C1CNCCNCCCNCCNC1 | 399 | 150 | > 1250 |  |
| COc1cc(CN2CCCNCCNCCCNCC2)c(OC)cc1CN1CCCNCCNCCCNCC1 | 0.0058 | 0.0066 | > 206 |  |
| c1cc(CN2CCNCCCNCCNCC2)ccc1CN1CCNCCCNCCNCC1 | 0.167 | 0.234 | > 208 |  |
| c1ccc(-c2cc(CN3CCCNCCNCCCNCC3)cc(CN3CCCNCCNCCCNCC3)c2)cc1 | 0.206 | 0.0246 | > 198 |  |
| O=[N+]([O-])c1cc(CN2CCCNCCNCCCNCC2)ccc1CN1CCCNCCNCCCNCC1 | 0.065 | 0.0731 | > 203 |  |
| 1,1'-[1,4-phenylenebis(methylene)]bis[1,4,8,11-tetraazacyclotetradecane]copper Heptahydrate (7H2O) [listing 2 of 2 here] |  |  |  | CC50 (MT4 [4]): > 201 µM |
| CCN1CCCN(CC)CCN(Cc2ccc(CN3CCCN(CC)CCN(CC)CCCN(CC)CC3)cc2)CCCN(CC)CC1 | 7.79 | 14.6 | > 341 |  |
| c1cc(CN2CCCNCCNCCCNCC2)ccc1CN1CCCNCCNCCCNCC1 [listing 2 of 2 here] | 0.0042 |  | > 421 |  |
| c1cc(CN2CCNCCCNCCNCC2)cc(CN2CCNCCCNCCNCC2)c1 | 0.0408 | 0.0618 | > 184 |  |
| Fc1c(CN2CCCNCCNCCCNCC2)cccc1CN1CCCNCCNCCCNCC1 | 0.0347 | 0.0734 | > 201 |  |
| Brc1c(CN2CCCNCCNCCCNCC2)cccc1CN1CCCNCCNCCCNCC1 | 0.138 | 0.246 | > 144 |  |
